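Following 48 hours of exposure in 96-well plates, responses at five concentrations were used to interpolate endpoints linearly. GI50 marks 50% less growth.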 Activity calls are given as the source filed them. No stated cut-off is given here; in the data, active = GI50 up to about 1.1 µM and inactive = higher.

Holding throughout (assay): DTP human tumour cell line panel, 48 h
Test [1] concerns 786-0.
In test [2] the test system is CAKI-1.
Test [3] relates to EKVX.
Test [4] relates to HCC 2998.
Test [5] concerns HCT-15.
Test [6] concerns HL-60.
Test [7] deals with LOX IMVI.
Test [8] deals with OVCAR-3.
In test [9] the test system is OVCAR-4.
The test system of test [10] is OVCAR-8.
In test [11] the test system is PC-3.
Test [12] deals with SF-295.
The subject of test [13] is SK-MEL-28.
The subject of test [14] is SK-MEL-2.
In test [15] the test system is SK-OV-3.
The subject of test [16] is SNB-19.
In test [17] the test system is SNB-75.
Test [18] has as its system TK-10.
The test system of test [19] is UACC-62.
The test system of test [20] is UO-31.

On to `N=C(N)NC(=N)Nc1ccc(S(=O)(=O)O)cc1`, for which the GI50 is > 100 µM (inactive) in test [1]; > 100 µM (inactive) in [2]; > 100 µM (inactive) in test [3]; > 100 µM (inactive) in test [4]; above 100 µM in [5]; > 100 µM (inactive) in [6]. Moreover, the GI50 in test [7], in [8], in test [9], in test [10], in [11] and in test [12] was > 100 µM (inactive) throughout. For the same compound, the GI50 in test [13], in [14], in test [15], in test [16], in test [17] and in [18] was > 100 µM (inactive) in each case. For the same compound, the GI50 in test [19] and in [20] was > 100 µM (inactive) each time.

Take `O=C1C(Br)=C(c2ccccc2)C(c2ccccc2)=C1c1ccccc1`: the GI50 in test [1] is 1.95 µM (inactive); in test [2], 2.44 µM (inactive); in test [3] it was 8.75 µM (inactive); in test [4], 6.05 µM (inactive); in test [5], 1.76 µM; in test [6], 0.67 µM (active). Besides, the GI50 in [7] was 1.33 µM (inactive); in test [8] it was 2.61 µM (inactive); in test [9], 1.99 µM (inactive); in [10], 2.04 µM (inactive); in test [11], 4.1 µM (inactive); in [12] it was 10.9 µM (inactive). Also, the GI50 in test [13] is 2.61 µM (inactive); in test [14] it was 4.41 µM (inactive); in test [15], 15.9 µM (inactive); in [16], 11.4 µM (inactive); in test [17], 3.63 µM (inactive); in [18] it was 3.42 µM (inactive). Besides, the GI50 in [19] was 2.38 µM (inactive); in test [20], 5.5 µM (inactive).

Regarding `O=C(NCCNCCNCCNC(=O)c1cc(-c2ccccc2)nc2ccccc12)c1cc(-c2ccccc2)nc2ccccc12`, the GI50 is 1.66 µM (inactive) in test [1]; 15.3 µM (inactive) in [2]; 5.96 µM (inactive) in test [3]; 1.71 µM (inactive) in test [4]; 7.08 µM in [5]; 1.74 µM (inactive) in test [6]. For the same compound, the GI50 in test [7] is 1.56 µM (inactive); in test [8], 2.64 µM (inactive); in [9], 3.43 µM (inactive); in test [10], 2.08 µM (inactive); in test [11], 3.48 µM (inactive); in [12] it was 1.67 µM (inactive). The GI50 in test [13] is 1.7 µM (inactive); in test [14], 1.54 µM (inactive); in test [15], 3.02 µM (inactive); in [16], 3.79 µM (inactive); in test [17], 1.78 µM (inactive); in test [18], 3.01 µM (inactive). Also, the GI50 is 2.05 µM (inactive) in test [19] and 6.9 µM (inactive) in [20].

Take `CCOC(=O)c1sc2[n+](c1C)C(=O)/C(=C/c1ccccc1Cl)S2`: the GI50 in test [1] was 0.618 µM (active); in [2], 0.453 µM (active); in test [3] it was 3.21 µM (inactive); in test [4] it was 1.7 µM (inactive); in test [5], 0.834 µM; in test [6] it was 4.12 µM (inactive). In addition, the GI50 is 0.851 µM (active) in test [7]; 0.891 µM (active) in test [8]; 33.3 µM (inactive) in test [9]; 1.01 µM (active) in test [10]; 0.989 µM (active) in test [11]; 0.324 µM (active) in test [12]. The GI50 was 9.75 µM (inactive) in [13]; 9.35 µM (inactive) in test [14]; 1.99 µM (inactive) in [15]; 0.579 µM (active) in [16]; 0.425 µM (active) in test [17]; 15.3 µM (inactive) in test [18]. The GI50 is 0.447 µM (active) in test [19] and 0.684 µM (active) in test [20].

On to `CC(C)(Cl)C(Cl)CC/C(CBr)=C(\Cl)CCl` (stereo not given), for which the GI50 is 2.55 µM (inactive) in [1]; 5.09 µM (inactive) in test [2]; 17.7 µM (inactive) in [3]; 14.4 µM (inactive) in test [4]; 1.97 µM in test [5]; 0.582 µM (active) in test [6]. Also, the GI50 in [7] is 0.406 µM (active); in test [8] it was 4.48 µM (inactive); in [9], 2.79 µM (inactive); in test [10], 3.17 µM (inactive); in [11], 7.31 µM (inactive); in test [12], 16.3 µM (inactive). In addition, the GI50 in test [13] is 2.92 µM (inactive); in [14], 2.47 µM (inactive); in test [15], 6 µM (inactive); in [16], 17.6 µM (inactive); in test [17] it was 4.45 µM (inactive); in test [18], 14.1 µM (inactive). The GI50 is 1.67 µM (inactive) in test [19] and 6.53 µM (inactive) in test [20].

In the case of `CC1(C)[C@@H]2C[C@H]1[C@@H](Cc1cccc(C[C@H]3c4cc(-c5ccccn5)ncc4[C@H]4C[C@@H]3C4(C)C)c1)c1cc(-c3ccccn3)ncc12`, the GI50 in test [1] was 2.1 µM (inactive); in test [2], 1.75 µM (inactive); in [3], 4.62 µM (inactive); in [4] it was 12.4 µM (inactive); in test [5], 8.24 µM; in test [6], 1.29 µM (inactive). Also, the GI50 in [7] is 1.75 µM (inactive); in test [8], > 30.5 µM (inactive); in test [9], > 100 µM (inactive); in test [10] it was 1.79 µM (inactive); in test [11] it was 12.6 µM (inactive); in test [12], 0.69 µM (active). Also, the GI50 in [13] is 4.92 µM (inactive); in [14] it was > 100 µM (inactive); in test [15], > 100 µM (inactive); in test [16], 3.46 µM (inactive); in test [17], > 22.8 µM (inactive); in test [18], > 39.5 µM (inactive). The GI50 was 2.92 µM (inactive) in test [19] and 1.22 µM (inactive) in test [20].

`C#CCNC(CCCNC(=N)N)C(=O)O` (stereo not given): the GI50 was > 100 µM (inactive) in test [1]; > 100 µM (inactive) in test [2]; > 100 µM (inactive) in test [3]; > 100 µM (inactive) in test [4]; above 100 µM in test [5]; > 100 µM (inactive) in test [6]. Further, the GI50 in [7], in test [8], in [9], in test [10], in test [11] and in test [12] was > 100 µM (inactive) throughout. Further, the GI50 in test [13], in [14], in test [15], in test [16], in [17] and in test [18] was > 100 µM (inactive) each time. Besides, the GI50 in test [19] and in [20] was > 100 µM (inactive) throughout.

Consider `Oc1ccc2c(c1)OCC1c3ccccc3OC21` (stereo not given), for which the GI50 in [1] is > 100 µM (inactive); in test [2], 46.3 µM (inactive); in test [3], 27.9 µM (inactive); in test [4], 27.8 µM (inactive); in test [5], 82.6 µM; in [6], 28.8 µM (inactive). In addition, the GI50 in [7] is 32.3 µM (inactive); in test [8], 59 µM (inactive); in test [9], 60.8 µM (inactive); in [10] it was 48.3 µM (inactive); in [11], 56.8 µM (inactive); in test [12] it was 50.6 µM (inactive). Also, the GI50 in [13] was > 100 µM (inactive); in [14], 60.5 µM (inactive); in [15] it was > 100 µM (inactive); in test [16], 40.6 µM (inactive); in [17], 45.2 µM (inactive); in [18] it was 87.7 µM (inactive). Moreover, the GI50 in test [19] was 61.5 µM (inactive); in test [20] it was 52.8 µM (inactive).

Turning to `CC(C)c1cccc(C(C)C)c1NC(=O)/C(CC(=O)CC(c1ccccc1)c1c(O)c2ccccc2oc1=O)=N/O` (stereo not given), the GI50 in [1] is > 100 µM (inactive); in test [2], > 100 µM (inactive); in [3], > 100 µM (inactive); in test [4], > 100 µM (inactive); in [5], above 100 µM; in test [6], > 100 µM (inactive). For the same compound, the GI50 in test [7], in [8], in test [9], in [10], in test [11] and in test [12] was > 100 µM (inactive) in each case. Also, the GI50 in test [13], in test [14], in [15], in [16], in test [17] and in [18] was > 100 µM (inactive) throughout. Also, the values for the GI50 in [19] and in [20] were > 100 µM (inactive) and > 95.9 µM (inactive), respectively.

With `CC(=O)CC(=O)Nn1c(-c2cccs2)nc2ccc(I)cc2c1=O`, the GI50 in [1] was > 65.9 µM (inactive); in test [2] it was > 47.3 µM (inactive); in test [3] it was > 37.7 µM (inactive); in test [4], > 39.8 µM (inactive); in test [5], above 57.7 µM; in test [6] it was > 66.5 µM (inactive). The GI50 in [7] was > 46.5 µM (inactive); in [8] it was > 40.7 µM (inactive); in test [9], > 100 µM (inactive); in [10] it was > 57.3 µM (inactive); in test [11], > 51.5 µM (inactive); in test [12] it was > 54.7 µM (inactive). The GI50 in [13] is > 100 µM (inactive); in [14], > 56.6 µM (inactive); in [15] it was > 66.7 µM (inactive); in test [16], > 68.2 µM (inactive); in test [17], 43.5 µM (inactive); in [18], > 43.9 µM (inactive). In addition, the GI50 in test [19] was > 50.6 µM (inactive); in test [20], > 46.9 µM (inactive).

Usually GI50 stands for the concentration that inhibits growth by half.

For the origin of these results see ChEMBL document CHEMBL1201862, “PubChem BioAssay data set” (2004).
